# From patent US8951999B2, “Compounds” (Orexo AB, priority 2009, dated 2015)
# Biological target: T1, recombinant human mPGES-1 (Homo sapiens, UniProt O14684)
# T1 sequence (O14684 1-152): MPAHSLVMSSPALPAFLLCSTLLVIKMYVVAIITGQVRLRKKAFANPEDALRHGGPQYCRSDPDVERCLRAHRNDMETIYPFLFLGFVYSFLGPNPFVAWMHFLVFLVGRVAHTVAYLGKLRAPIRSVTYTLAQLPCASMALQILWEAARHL
# Assay: Assay B: mPGES-1 enzyme assay (modified)
# Type: biochemical
# Settings: biological assay B (all other compounds); PGH2 final conc. 2 μM, HTRF; read-out: mPGES-1 inhibitory effect IC50
# Protocol: Assay B: mPGES-1 Enzyme Assay (Modified)
# The aim of this assay is to determine the affinity of a test compound for the mPGES-1 enzyme.
# 47 μl of recombinant human mPGES-1 (˜0.5 μg protein/well) containing microsomal suspension in a buffer containing GSH, (2.5 mmol/L L-Glutathione reduced, dissolved in 0.1 mol/L Phosphat Buffer pH 7.4) is dispensed in a 384-well plate and thereafter 1 μl of the test compound(s) is/are added and incubated for 25 minutes at room temperature. The enzyme reaction is started by the addition of 2 ul PGH2 (final conc. 2 μM) dissolved in water-free Diglyme. After 60 seconds the reaction is terminated by addition of a stop solution containing FeCl2 (10 μL 0.074 mol/l FeCl2). The samples are diluted between 1:25 in PBS (Phosphate Buffered Saline). 10 μl of the diluted samples are transferred to 384-well low volume plate. In order to quantify the amount of PGE2 that has been formed, a homogenous time resolved fluorescent (HTRF) detecting of PGE2 has been performed using a commercially available kit from Cisbio according to the manufactures recommendation. This HTRF-based assay has been described in detail (see: Goedken et al., J Biomol Screen, 2008, 13(7), 619-625). Briefly, the diluted samples are mixed with […] PGE2-d2 conjugate and 5 μl anti-PGE2 cryptate conjugate. After an incubation period of the plates over night, the fluorescence is measured by the use of an appropriate microplate reader.
# The fluorescence of Europium cryptate (maxex=307 nm, maxem=620 nm) and d2-PGE2 (maxex=620 nm, maxem=665 nm) are measured.
# The extent of the specific HTRF is measured as a ratio of the emission intensity at 665 nm vs. that at 620 nm at an excitation pulse of 320 nm. The quantification plate contains also wells with different concentrations of PGE2 as calibration curve for the calculation of the PGE2 concentrations from the HTRF ratio values.
# From all mPGES enzyme assay the background is subtracted and the IC50 is calculated over a nonlinear regression with conventional software.
row,IC50,SMILES
1,7 nM,CC(C)(C(=O)NCc1ccc(Cl)c(C(=O)Nc2ccc(OCC(F)F)c(C(=O)Nc3nc4ccc(Cl)cc4s3)c2)c1)C(F)(F)F [Example 93]
2,6 nM,CC(C)(C(=O)NCc1ccc(Cl)c(C(=O)Nc2ccc(OCC(F)F)c(C(=O)Nc3ccc(Cl)cc3Cl)c2)c1)C(F)(F)F [Example 94]
3,8 nM,CC(C)(C(=O)NCc1ccc(Cl)c(C(=O)Nc2ccc(OCC(F)F)c(C(=O)NCC3CC3)c2)c1)C(F)(F)F [Example 95]
4,5 nM,CC1CCC(NC(=O)c2cc(NC(=O)c3cc(CNC(=O)C(C)(C)C(F)(F)F)ccc3Cl)ccc2OCC(F)F)CC1 (stereo not shown) [Example 96]
5,79 nM,CNC(=O)c1cc(NC(=O)c2cc(CNC(=O)C(C)(C)C(F)(F)F)ccc2Cl)ccc1OCC(F)F [Example 97]
6,43 nM,CC(C)(C(=O)NCc1ccc(Cl)c(C(=O)Nc2ccc(OCC(F)F)c(C(=O)NCC3CCCOC3)c2)c1)C(F)(F)F (stereo not shown) [Example 98]
7,7 nM,CC(NC(=O)c1cc(NC(=O)c2cc(CNC(=O)C(C)(C)C(F)(F)F)ccc2Cl)ccc1OCC(F)F)C(F)(F)F (stereo not shown) [Example 99]
8,5 nM,CC(C)(C(=O)NCc1ccc(Cl)c(C(=O)Nc2ccc(OCC(F)F)c(C(=O)Nc3ccc(Br)cc3F)c2)c1)C(F)(F)F [Example 100]
9,9 nM,CC(C)(C(=O)NCc1ccc(Cl)c(C(=O)Nc2ccc(OCC(F)F)c(C(=O)NCc3cccc(C(F)(F)F)c3)c2)c1)C(F)(F)F [Example 101]
10,> 100 nM,CC(C)(C(=O)NCc1ccc(Cl)c(C(=O)Nc2ccc(OCC(F)F)c(C(=O)NCC3(O)CC3)c2)c1)C(F)(F)F [Example 102]
11,237 nM,CC(C)(C(=O)NCc1ccc(Cl)c(C(=O)Nc2ccc(OCC(F)F)c(C(=O)NC3CCC(CO)CC3)c2)c1)C(F)(F)F (stereo not shown) [Example 103]
12,10 nM,CC(C)(C(=O)NCc1ccc(Cl)c(C(=O)Nc2ccc(OCC(F)F)c(C(=O)NCc3ccc(C(F)(F)F)cc3)c2)c1)C(F)(F)F [Example 104]
13,5 nM,CC(C)(C(=O)NCc1ccc(Cl)c(C(=O)Nc2ccc(OCC(F)F)c(C(=O)Nc3ccc(Br)c(Cl)c3)c2)c1)C(F)(F)F [Example 105]
14,6 nM,CC(C)(C(=O)NCc1ccc(Cl)c(C(=O)Nc2ccc(OCC(F)F)c(C(=O)Nc3ccc(Cl)c(C#N)c3)c2)c1)C(F)(F)F [Example 106]
15,5 nM,CC1(C)CC1CNC(=O)c1cc(NC(=O)c2cc(CNC(=O)C(C)(C)C(F)(F)F)ccc2Cl)ccc1OCC(F)F (stereo not shown) [Example 107]
16,5 nM,CC(C)(C(=O)NCc1ccc(Cl)c(C(=O)Nc2ccc(OCC(F)F)c(C(=O)Nc3ccc(Cl)c(F)c3)c2)c1)C(F)(F)F [Example 108]
17,13 nM,CC(C)(C(=O)NCc1ccc(Cl)c(C(=O)Nc2ccc(OCC(F)F)c(C(=O)Nc3cc(C(F)(F)F)ccn3)c2)c1)C(F)(F)F [Example 109]
18,17 nM,CC(C)NC(=O)c1cc(NC(=O)c2cc(CNC(=O)C(C)(C)C(F)(F)F)ccc2Cl)ccc1OCC(F)F [Example 110]
19,7 nM,CC(C)(C(=O)NCc1ccc(Cl)c(C(=O)Nc2ccc(OCC(F)F)c(C(=O)NC3CCCC3)c2)c1)C(F)(F)F [Example 111]
20,16 nM,CCNC(=O)c1cc(NC(=O)c2cc(CNC(=O)C(C)(C)C(F)(F)F)ccc2Cl)ccc1OCC(F)F [Example 112]
21,4 nM,CC(C)(C(=O)NCc1ccc(Cl)c(C(=O)Nc2ccc(OCC(F)F)c(C(=O)Nc3cc(F)cc(Cl)c3)c2)c1)C(F)(F)F [Example 113]
22,10 nM,CC(C)(C(=O)NCc1ccc(Cl)c(C(=O)Nc2ccc(OCC(F)F)c(C(=O)NCC(F)(F)C(F)(F)F)c2)c1)C(F)(F)F [Example 114]
23,15 nM,CC(C)(C(=O)NCc1ccc(Cl)c(C(=O)Nc2ccc(OCC(F)F)c(C(=O)NCCC(F)(F)F)c2)c1)C(F)(F)F [Example 115]
24,6 nM,CC(C)(C(=O)NCc1ccc(Cl)c(C(=O)Nc2ccc(OCC(F)F)c(C(=O)Nc3ccc(F)cc3Cl)c2)c1)C(F)(F)F [Example 116]
25,40 nM,CC(C)(C(=O)NCc1ccc(Cl)c(C(=O)Nc2ccc(OCC(F)F)c(C(=O)NC[C@@H]3CCCO3)c2)c1)C(F)(F)F [Example 117]
26,98 nM,CC(C)(C(=O)NCc1ccc(Cl)c(C(=O)Nc2ccc(OCC(F)F)c(C(=O)Nc3ccncn3)c2)c1)C(F)(F)F [Example 118]

row,IC50,SMILES
1,5 nM,CC(C)(C(=O)NCc1ccc(Cl)c(C(=O)Nc2ccc(OCC(F)F)c(C(=O)Nc3cccc(F)c3)c2)c1)C(F)(F)F [Example 119]
2,7 nM,COc1cc(NC(=O)c2cc(NC(=O)c3cc(CNC(=O)C(C)(C)C(F)(F)F)ccc3Cl)ccc2OCC(F)F)ccc1Br [Example 120]
3,11 nM,CC(C)(C(=O)NCc1ccc(Cl)c(C(=O)Nc2ccc(OCC(F)F)c(C(=O)NCCCC(F)(F)F)c2)c1)C(F)(F)F [Example 121]
4,7 nM,CC(C)(C(=O)NCc1ccc(Cl)c(C(=O)Nc2ccc(OCC(F)F)c(C(=O)NC3CCC3)c2)c1)C(F)(F)F [Example 122]
5,48 nM,CC(C)(C(=O)NCc1ccc(Cl)c(C(=O)Nc2ccc(OCC(F)F)c(C(=O)NC3CCCOC3)c2)c1)C(F)(F)F (stereo not shown) [Example 123]
6,5 nM,CC(C)(C(=O)NCc1ccc(Cl)c(C(=O)Nc2ccc(OCC(F)F)c(C(=O)NC3CC4CCC3C4)c2)c1)C(F)(F)F (stereo not shown) [Example 124]
7,5 nM,CC(C)(C(=O)NCc1ccc(Cl)c(C(=O)Nc2ccc(OCC(F)F)c(C(=O)Nc3ccc(Cl)c(Cl)c3)c2)c1)C(F)(F)F [Example 125]
8,4 nM,CC(C)(C(=O)NCc1ccc(Cl)c(C(=O)Nc2ccc(OCC(F)F)c(C(=O)Nc3ccc(Cl)c(C(F)(F)F)c3)c2)c1)C(F)(F)F [Example 126]
9,19 nM,CC(C)(C(=O)NCc1ccc(Cl)c(C(=O)Nc2ccc(OCC(F)F)c(C(=O)Nc3nc4c(s3)CCC4)c2)c1)C(F)(F)F [Example 127]
10,5 nM,CC(C)(C(=O)NCc1ccc(Cl)c(C(=O)Nc2ccc(OCC(F)F)c(C(=O)Nc3ccc(F)c(Cl)c3)c2)c1)C(F)(F)F [Example 128]
11,5 nM,CC(C)(C(=O)NCc1ccc(Cl)c(C(=O)Nc2ccc(OCC(F)F)c(C(=O)NCC3CCCCC3)c2)c1)C(F)(F)F [Example 129]
12,4 nM,CC(C)(C(=O)NCc1ccc(Cl)c(C(=O)Nc2ccc(OCC(F)F)c(C(=O)Nc3ccc(OC(F)(F)F)c(Cl)c3)c2)c1)C(F)(F)F [Example 130]
13,9 nM,CC(C)(C(=O)NCc1ccc(Cl)c(C(=O)Nc2ccc(OCC(F)F)c(C(=O)Nc3ccnc4ccccc34)c2)c1)C(F)(F)F [Example 131]
14,6 nM,CC(C)(C(=O)NCc1ccc(Cl)c(C(=O)Nc2ccc(OCC(F)F)c(C(=O)NCc3ccccc3OC(F)(F)F)c2)c1)C(F)(F)F [Example 132]
15,6 nM,CC(C)(C(=O)NCc1ccc(Cl)c(C(=O)Nc2ccc(OCC(F)F)c(C(=O)Nc3ccc(Br)c(F)c3)c2)c1)C(F)(F)F [Example 133]
16,7 nM,CC(C)(C(=O)NCc1ccc(Cl)c(C(=O)Nc2ccc(OCC(F)F)c(C(=O)Nc3ccc(F)c(Cl)c3F)c2)c1)C(F)(F)F [Example 134]
17,7 nM,CC(NC(=O)c1cc(NC(=O)c2cc(CNC(=O)C(C)(C)C(F)(F)F)ccc2Cl)ccc1OCC(F)F)C1CC1 (stereo not shown) [Example 135]
18,7 nM,CC(C)(C(=O)NCc1ccc(Cl)c(C(=O)Nc2ccc(OCC(F)F)c(C(=O)NC3CCC4(CC3)CC4)c2)c1)C(F)(F)F [Example 136]
19,9 nM,CC(C)(C(=O)NCc1ccc(Cl)c(C(=O)Nc2ccc(OCC(F)F)c(C(=O)Nc3ccncc3Cl)c2)c1)C(F)(F)F [Example 137]
20,5 nM,CC(C)(C(=O)NCc1ccc(Cl)c(C(=O)Nc2ccc(OCC(F)F)c(C(=O)NCc3ncccc3C(F)(F)F)c2)c1)C(F)(F)F [Example 138]
21,6 nM,CC(C)(C(=O)NCc1ccc(Cl)c(C(=O)Nc2ccc(OCC(F)F)c(C(=O)Nc3ccccc3Cl)c2)c1)C(F)(F)F [Example 139]
22,8 nM,CC(C)CNC(=O)c1cc(NC(=O)c2cc(CNC(=O)C(C)(C)C(F)(F)F)ccc2Cl)ccc1OCC(F)F [Example 140]
23,5 nM,CC(C)(C(=O)NCc1ccc(Cl)c(C(=O)Nc2ccc(OCC(F)F)c(C(=O)NCC3CCC3)c2)c1)C(F)(F)F [Example 141]
24,6 nM,CC(C)(C(=O)NCc1ccc(Cl)c(C(=O)Nc2ccc(OCC(F)F)c(C(=O)NC3CCC(C(F)F)CC3)c2)c1)C(F)(F)F (stereo not shown) [Example 142]
25,6 nM,CC(C)(C(=O)NCc1ccc(Cl)c(C(=O)Nc2ccc(OCC(F)F)c(C(=O)NCCC3CC3)c2)c1)C(F)(F)F [Example 143]
26,7 nM,CC(C)(C(=O)NCc1ccc(Cl)c(C(=O)Nc2ccc(OCC(F)F)c(C(=O)Nc3cc(Cl)c4cc[nH]c4c3)c2)c1)C(F)(F)F [Example 144]
